One block for each compound: values may come before it.
Legend:
[1] = biological target: T1, eNOS (Bos taurus, UniProt P29473); assay: EPR (DEPMPO spin-trap) assessment of superoxide production by pterin-bound eNOS; type: biochemical; details: 7 pmol eNOS; BH4 10 μM in buffer; subsequent addition of sepiapterin 50 μM or BH2 1 mM; FIGS. 2(a)-(c)
T1 construct: made in house
Protocol: (§1) The eNOS used in Reference Examples 1, 2, 3 and 4 was made as described in Martasek, P., et al., Biochem. Biophys. Res. Commn 219, 359-365 (1996).
Assay buffer utilized contained HEPES (50 mM, pH 7.4), calcium (0.2 mM), calmodulin (10 μg/ml), NADPH (0.1 mM), L-arginine (0.1 mM), tetrahydrobiopterin (10 μM), DEPMPO (structure shown in upper right of FIG. 2(a)) (50 mM), and diethylenetriamine pentaacetic acid (DTPA) (0.1 mM). Included was 7 pmol eNOS. Incubation was for 15 min at 22° C. Subsequent addition was either of sepiapterin (50 μM) or BH2 (1 mM). The DEPMPO functions as a probe (spin-trap) that selectively captures superoxide anion. Electron paramagnetic resonance (EPR) was carried out to determine superoxide production. EPR was carried out at microwave power of 2 mW, modulation amplitude 1G, time constant 0.128 seconds, scan rate 1.6 G/s, gain 1.25×10E5, number of scans 10.

[2] = biological target: T2, eNOS (Bos taurus, UniProt P29473); assay: [3H]tetrahydrobiopterin competition binding to eNOS (96-well filtration plate assay); details: [3H]BH4 10 pmoles, eNOS 3 pmoles, 15 minutes at 22° C., FIG. 1
T2 construct: made in house
T2 sequence (P29473 1-1205): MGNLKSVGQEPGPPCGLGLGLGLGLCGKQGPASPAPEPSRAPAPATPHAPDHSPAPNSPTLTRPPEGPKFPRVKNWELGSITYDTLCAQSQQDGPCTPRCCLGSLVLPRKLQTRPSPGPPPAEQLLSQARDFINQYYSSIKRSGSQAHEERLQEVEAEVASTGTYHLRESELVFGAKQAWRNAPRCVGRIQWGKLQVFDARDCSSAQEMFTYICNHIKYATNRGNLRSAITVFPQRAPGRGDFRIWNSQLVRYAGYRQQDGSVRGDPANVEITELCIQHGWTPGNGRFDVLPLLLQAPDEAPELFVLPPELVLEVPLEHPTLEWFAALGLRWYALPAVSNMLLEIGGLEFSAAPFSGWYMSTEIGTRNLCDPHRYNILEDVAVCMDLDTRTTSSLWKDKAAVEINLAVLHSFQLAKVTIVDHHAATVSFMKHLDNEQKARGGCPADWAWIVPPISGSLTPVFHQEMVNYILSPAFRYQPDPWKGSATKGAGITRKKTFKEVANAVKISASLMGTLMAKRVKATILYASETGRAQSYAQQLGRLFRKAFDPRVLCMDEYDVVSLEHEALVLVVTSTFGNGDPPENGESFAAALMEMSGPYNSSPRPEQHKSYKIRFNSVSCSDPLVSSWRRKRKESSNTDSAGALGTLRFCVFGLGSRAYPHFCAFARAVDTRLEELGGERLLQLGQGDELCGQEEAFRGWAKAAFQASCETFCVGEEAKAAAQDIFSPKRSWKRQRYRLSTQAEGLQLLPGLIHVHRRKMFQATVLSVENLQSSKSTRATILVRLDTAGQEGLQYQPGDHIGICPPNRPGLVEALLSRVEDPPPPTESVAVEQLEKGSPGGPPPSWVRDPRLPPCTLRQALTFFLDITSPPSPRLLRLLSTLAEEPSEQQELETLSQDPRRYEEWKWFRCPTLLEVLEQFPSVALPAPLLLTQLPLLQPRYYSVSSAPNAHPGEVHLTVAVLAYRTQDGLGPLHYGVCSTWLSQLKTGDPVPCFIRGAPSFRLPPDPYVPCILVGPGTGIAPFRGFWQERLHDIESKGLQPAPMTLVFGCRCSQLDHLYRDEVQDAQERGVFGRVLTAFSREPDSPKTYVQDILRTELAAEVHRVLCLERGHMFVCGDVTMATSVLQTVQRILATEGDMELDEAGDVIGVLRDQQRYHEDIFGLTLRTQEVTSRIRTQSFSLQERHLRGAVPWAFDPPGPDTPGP
Protocol: as §1
Increasing concentrations of unlabeled pterins were incubated for 15 minutes at 22° C. with [^3]tetrahydrobiopterin ([^3H]BH4), 10 pmoles, and eNOS, 3 pmoles, in binding buffer which is Tris.HCl, pH 7.5, (50 mM), and dithiothreitol (DTT) (1 mM), in a 100 microliter volume in each well in a 96-well filtration plate assay. The pterins used include 5,6,7,8-tetrahydrobiopterin (BH4), 7,8-dihydrobiopterin (BH2), 6-methyltetrahydrobiopterin (6 MePH4) and sepiapterin. Data which are shown in FIG. 1 are mean±SEM values of triplicate determinations. Similar results were obtained in four separate experiments. In FIG. 1, the squares denote BH4 for the naturally occurring (R)-stereoisomer of BH4 and represent BH4, the triangles represent BH2, the diamonds represent 6 MePH4, and the circles represent sepiapterin. In FIG. 1, the term “Inhibitor” in the horizontal legend means pterin analog and is generic for BH4, BH2, 6MePH4 and sepiapterin. Incubations were carried out at the concentrations indicated by the data points in FIG. 1. This experiment is to compare the ability of the named pterins to compete for [^3H]BH4 binding to eNOS.

[3] = biological target: T1, eNOS; assay: Total nitrate/nitrite (Greiss assay) production by BH4- or BH2-bound eNOS from arginine or N-hydroxyarginine; type: biochemical; details: for production of nitric oxide (total nitrate/nitrite) from substrate by BH2-bound eNOS / production of nitric oxide (total nitrate/nitrite) from substrate by BH4-bound eNOS: substrate 100 μM, eNOS 10 pmol, 1 hour at 37° C.; for production of nitric oxide (total nitrate/nitrite) from substrate by BH2-bound eNOS: BH2 10 μM; for production of nitric oxide (total nitrate/nitrite) from substrate by BH4-bound eNOS: BH4 10 μM
Protocol: as §1
All samples were 100 microliter total volume and contained assay buffer (Tris.HCl pH 7.6 (50 mM), DTT (1 mM), calcium (100 μM), and calmodulin (100 nM)). In the assay buffer, eNOS (10 pmol), either BH4 (10 μM) or BH2 (10 μM), and either L-arginine (100 μM) or N^ω-hydroxy-L-arginine (100 μM) were introduced. In some experiments, the nitric oxide synthase inhibitor N^ω-methyl-L-arginine (NMA, 1 mM) was additionally added or the required NO synthase cofactor calmodulin was omitted (No CaM). Incubations were for 1 hour at 37° C. Total nitrate/nitrite (as a measure of nitric oxide) was measured by the Greiss assay as described in “Methods of Nitric Oxide Research,” edited by Feelisch, M. and Stamler, J. S., John Wiley & Sons Ltd. (1996) at pages 491-497. Results are shown in FIGS. 3(a), 3(b), 3(c) and 3(d). […] Data represent means±SEM values of quadruplicate determinations.

[4] = biological target: T1, eNOS; assay: Concentration dependence of nitric oxide synthesis from N-hydroxyarginine by BH2- or BH4-bound eNOS; type: biochemical; details: eNOS 10 pmol preincubated with BH2 10 μM or BH4 10 μM; 1 hour at 37° C.; FIG. 4
Protocol: as §1
eNOS (10 pmol) was preincubated for 30 minutes at 37° C. in the presence of either BH2 (10 μM) or BH4 (10 μM) in assay buffer (Tris.HCl pH 7.6 (50 mM), DTT (1 mM), calcium (100 μM) and calmodulin (100 nM)). Then N^ω-hydroxy-L-arginine (denoted “Hydroxyarginine” in FIG. 4) was added (concentrations as disclosed in FIG. 4) and incubations were 100 microliter total volume and were allowed to proceed for 1 hour at 37° C. Nitric oxide production was assessed from accumulation of its stable oxidation products (nitrite and nitrate), quantified by a modified Greiss assay (reference recited in Reference Example 3). Data are mean±SEM values of quadruplicate determinations.

[5] = Example I: ointment applied to toes of male with Type I diabetes; type: in vivo, human; details: 1% by weight ointment four times a day
Excerpt: A person with Type I diabetes presents with symptoms of pain in toes and loss of pink color (gray tissue tone) in toes. An ointment containing 1% by weight N^ω-hydroxy-L-arginine is applied to the toes four times a day.

[6] = Example II: treadmill test in male with coronary artery disease; type: in vivo, human; details: oral 10 mg/kg, within 90 minutes after dose; 3 mph, 5% incline; before treatment pain after 10 minutes
Protocol: A person with coronary artery disease develops chest pain and electrocardiographic evidence of angina after 10 minutes on a treadmill at 3 mph and 5% incline. Within 90 minutes after an oral dose of 10 mg/kg of N^ω-hydroxy-L-arginine, the subject is able to walk on the treadmill at 3 mph and 5% incline for 25 minutes without pain or evidence of […].

[7] = Example III: blood pressure and vascular resistance in hypertensive female; type: in vivo, human; details: single 10 mg/kg intravenous dose, one hour after
Protocol: A person has moderate hypertension (150/100 mm Hg) and elevated vascular resistance. One hour after receiving a single 10 mg/kg intravenous dose of N^ω-hydroxy-L-arginine, mean arterial blood pressure is diminished by 14 mm Hg and systemic vascular resistance is reduced by 10%.

[8] = Example IV: chronic oral therapy after stroke; type: in vivo, human; details: oral 5 mg/kg every 4 hours, alone or combined with L-arginine 20 mg/kg every 4 hours
Protocol: A person suffers from type 2 diabetes (adult onset diabetes or insulin resistant diabetes), coronary artery disease and hypertension (a not uncommon composite of conditions), experiences a stroke resulting in acute left-sided paralysis owing to right middle cerebral artery occlusion. Surviving the stroke, the patient is placed on chronic oral therapy with N^ω-hydroxy-L-arginine, 5 mg/kg every 4 hours, or a combination of this with L-arginine, 20 mg/kg every 4 hours.

[9] = Example V: chronic oral treatment of man with mild hypertension and coronary artery atherosclerosis; type: in vivo, human; details: oral 5 mg/kg every 4 hours, free drug or with antioxidants/vitamins, with or without L-arginine
Protocol: He is treated with 5 mg/kg N^ω-hydroxy-L-arginine every 4 hours orally as either free drug or in admixture with antioxidant agents and vitamins (e.g., ascorbate, alpha-tocopherol, vitamin B6, vitamin B12, folate (folic acid), carotenoids, coenzyme Q10, phytoestrogens (including isoflavonoids), selenium, butylated hydroxytoluene (BHT), butylated hydroxyanisole (BHA) and n-3 polyunsaturated fatty acids (PUFA)) with or without L-arginine supplementation (20 mg/kg every 4 hours). The mixture is delivered as a nutriceutical. Blood pressure normalizes to less than 130/80 mm Hg and angiographic evidence indicates atherosclerosis progression is less than 10% additional over the next five years.

superoxide production by eNOS bound to the pterin (EPR) [1]: will activate superoxide production
Structure (SMILES): C[C@H](O)C(=O)C1=Nc2c(nc(N)[nH]c2=O)NC1 [sepiapterin]

affinity of binding to eNOS (competition for [3H]BH4 binding) [2]: bind with equal affinity to eNOS
superoxide production by eNOS bound to the pterin (EPR) [1]: activate superoxide production
Structure (SMILES): C[C@H](O)[C@H](O)C1=Nc2c(nc(N)[nH]c2=O)NC1 [BH2, 7,8-dihydrobiopterin]

Structure (SMILES): N=C(N)NCCC[C@H](N)C(=O)O [arginine, L-arginine]
production of nitric oxide (total nitrate/nitrite) from substrate by BH2-bound eNOS [3]: does not cause production of nitric oxide
production of nitric oxide (total nitrate/nitrite) from substrate by BH4-bound eNOS [3]: causes production of nitric oxide

block of arginine conversion to nitric oxide by BH4-bound eNOS ([3]; NMA 1 mM added, L-arginine 100 μM): > 90%
effect on N-hydroxyarginine conversion to nitric oxide by BH2-bound eNOS ([3]; NMA 1 mM added, N-hydroxy-L-arginine 100 μM): < 30%
Structure (SMILES): CNC(=N)NCCC[C@H](N)C(=O)O [NMA, N^ω-methyl-L-arginine]

Structure (SMILES): N=C(NO)NCCC[C@H](N)C(=O)O [N^ω-hydroxy-L-arginine]
production of nitric oxide (total nitrate/nitrite) from substrate by BH2-bound eNOS [3]: does cause production of nitric oxide
production of nitric oxide (total nitrate/nitrite) from substrate by BH4-bound eNOS [3]: causes production of nitric oxide
production of nitrogen oxides (nitrite and nitrate) by eNOS from the substrate [4]: supports the production of nitrogen oxides by eNOS in the presence of either BH2 or BH4
blood perfusion [5]: Blood perfusion is increased
pain in toes ([5]; within 48 hours): pain diminishes
tissue colour of toes ([5]; within 48 hours): tissue becomes pinker
time able to walk on treadmill without pain or evidence of angina [6]: 25 min
decrease of mean arterial blood pressure [7]: 14 mm Hg
reduction of systemic vascular resistance [7]: 10%
recurrence of stroke within the next two years [8]: no recurrence of stroke
atherosclerosis progression (angiographic) over the next five years [9]: less than 10%
blood pressure after treatment ([9]; baseline 140/90 mm Hg): less than 130/80
